Laboratory results from paper PMC8049364, “Quantification of Macrophage-Driven Inflammation During Myocardial Infarction with ^18F-LW223, a Novel TSPO Radiotracer with Binding Independent of the rs6971 Human Polymorphism” (Journal of Nuclear Medicine, 2021).

What was measured:
TSPO [1] = biological target: T1, TSPO (Homo sapiens, UniProt P30536); assay: In vitro competition binding assay with ^3H-PK11195 in human brain homogenates (HAB, MAB, LAB); conditions: for LAB/HAB ratio: human brain homogenates, rs6971 genotyped
T1 sequence (P30536 2-169): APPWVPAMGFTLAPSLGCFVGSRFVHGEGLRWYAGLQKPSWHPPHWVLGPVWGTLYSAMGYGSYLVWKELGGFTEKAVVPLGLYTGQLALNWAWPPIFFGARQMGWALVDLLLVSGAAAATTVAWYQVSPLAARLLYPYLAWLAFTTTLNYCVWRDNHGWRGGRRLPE
Procedure: (§1) All studies using human tissue were conducted in accordance with the National Health Service Research Ethics Committee South East Scotland (Edinburgh Brain and Tissue Bank, 16/ES/0084). Supplemental Table 1 contains the Brain Bank Network reference number for all tissues used from the Edinburgh Brain and Tissue Bank. […] Samples were homogenized in ×10 w/v buffer (50 mM Tris-Base, pH 7.4, 4°C) before centrifugation (32,000g, 10 min, 4°C). Tissue pellets were then resuspended in ×10 w/v buffer and centrifuged again before resuspending in 2 mL of buffer. Samples were assessed for protein concentration using the Bio-Rad protein assay, aliquoted, and stored at −80°C until use. The competition binding assay protocol was adjusted from a previously reported protocol ([16]), as detailed within the supplemental materials.
(§2) In Vitro Human Competition Binding Assays
(§3) Briefly, 250 µg protein/mL in 200 µl of buffer was added to 100 µl of 1 nM 3H- […]
(§4) Aldrich, USA), PBR28 (ABX, Germany), AB5186 or LW223 at 14 different concentrations (0.001-3000 nM) for 90 min at 4 °C. Binding was terminated with the addition of ice cold buffer before being immediately filtered over a Whatman GF/B filters (Whatman, UK) pre-treated with 0.3% polyethylenimine (Sigma-Aldrich, USA) using a Brandel harvester (Brandel, USA). Filter paper was then removed, placed into 2.5 mL of Optiphase HiSafe 3 (Perkin Elmer, USA) and counted 48 hours later on a Hidex 300 SL (Hidex, Finland).
(§5) All binding assays were performed
(§6) GraphPad Prism version 6 (GraphPad Software, USA) was used to fit all binding affinity curves. A comparison of a one-site and two-site models was made using the least squares algorithm and model selection was compared using an F test. The null hypothesis (one-site fitting as more suitable) was rejected if p<0.05. Normalized mean […]
(§7) saturation binding results, Sup.Fig.2) was used to determine the best fitting model and to calculate LAB:HAB ratios. Affinity values (Ki) were calculated by fitting individual tissue

TSPO [2] = assay: In vitro competition binding assay with ^3H-PK11195 in human heart homogenates (HAB, MAB, LAB); conditions: for Effect of rs6971 genetic polymorphism on Ki: human heart; for LAB/HAB ratio: human heart homogenates, rs6971 genotyped
Procedure: as §1, §2, §3, §4, §5, §6, §7

TSPO [3] = biological target: T1, TSPO; assay: as above; conditions: human heart
Procedure: as §1, §2, §3, §4, §5, §6, §7

TSPO [4] = conditions: cited from earlier work
[5] = humans; cited from earlier work
[6] = cited from earlier work
TSPO [7] = conditions: humans; cited from earlier work

| SMILES | LAB/HAB ratio (TSPO [1]) | Effect of rs6971 genetic polymorphism on Ki (TSPO [2]) | LAB/HAB ratio (TSPO [2]) | VT in the brain (TSPO [4]) | further results |
| --- | --- | --- | --- | --- | --- |
| CCN(CC)C(=O)c1nc2ccccc2c(-c2ccccc2)c1CF [AB5186] | 9 | affected | 7 |  | Effect of rs6971 genetic polymorphism on Ki (TSPO [1]; human brain): affected |
| CC[C@@H](C)N(C)C(=O)c1nc2ccccc2c(-c2ccccc2)c1CF [LW223] | 1 | unaffected | 1 |  | Effect of rs6971 genetic polymorphism on Ki (TSPO [1]; human brain): unaffected; Ki (TSPO [1]; human brain): 0.6 nM; Ki (TSPO [3]): 1.7 nM |
| COc1ccccc1CN(C(C)=O)c1cnccc1Oc1ccccc1 [PBR28, reference compound] | 48 | affected | 48 |  |  |
| CC[C@@H](C)N([11CH3])C(=O)c1nc(-c2ccccc2Cl)c2ccccc2n1 [^11C-ER176] |  |  |  | 1.6–3.5 mL/cm^3 | parent free fraction in plasma [5]: 3.3% |
| CCC(C)N([11CH3])C(=O)c1cc2ccccc2c(-c2ccccc2Cl)n1 (centres unmarked) [^11C-PK11195] |  |  |  | 0.6–0.74 mL/cm^3 | parent free fraction in plasma [5]: 1%; parent in plasma ([6]; same lower species (rat)): ~40%; SUVpeak, heart (TSPO [7]): 5; SUVpeak, lung (TSPO [7]): 3 |
| CN(C(=O)Cn1c(=O)oc2ccc(-c3ccc(OCC[18F])cc3)cc21)c1ccccc1 [^18F-FEBMP] |  |  |  |  | original parent compound found in blood ([6]; rats, 30 min after injection): less than 10% |
| CCN(CC)C(=O)[C@H]1CCCc2c1c1c(OC)cccc1n2CC[18F] [^18F-GE180, Flutriciclamide] |  |  |  | 0.10–0.28 mL/cm^3 |  |
| CCN(CC)C(=O)Cc1c(-c2ccc(OCCC[18F])cc2)nc2ccc(Cl)cn12 [^18F-PBR111] |  |  |  | 2.22–4.03 mL/cm^3 |  |
